Entries after “also recorded” stand apart in the source; their conditions may differ.
Assays:
[1] = tested on: healthy human CD34+ umbilical cord cells; assay: Cell viability, healthy CD34+ umbilical cord cells; type: cell-based
[2] = Metabolic stability in pooled mouse liver s9 fractions with NADPH; type: in vitro ADME; conditions: 60 min
Experimental: For the pooled s9 fractions, solution of the s9 fraction along with NADPH was added to each well. […] The positive control used in the assay was Verapamil, a known drug to be metabolized by liver enzymes. The reaction was started by the addition of 13a and performed in duplicate. Aliquots were taken from the reaction solution at 0 min and 60 min. The reaction was stopped by the addition of cold methanol. Samples were then analyzed through LC-MS/MS to determine the metabolic profile.

[3] = tested on: pSTAT5; assay: Western blotting of pSTAT5 in MV-4;11 cells; type: cell-based, Human
Text: Correspondingly, western blot analysis for protein levels of pSTAT5 and downstream target gene expression were also investigated within the AML cell line, MV-4; 11.

[4] = tested on: phosphorylated STAT3 (Tyr 705); assay: Western blotting of pSTAT3 in MDA-MB-231 cells; type: cell-based
Experimental: Proteins were extracted using RIPA buffer with protease and phosphates inhibitors and a careful protein determination were preformed (BCA protein assay kit, Pierce). In each assay, 30 μg of clarified whole cell extract were resolved on a 10% polyacrylamide-SDS gel and transferred to a nitrocellulose membrane (Bio-Rad). The membranes were blocked with 5% nonfat milk for at least 1 h followed by an overnight incubation in primary antibody.
Immunodetection was performed using antibodies against the total STAT5 (Cell Signaling #9363), phosphorylated STAT5 (Tyr 694) (Cell Signaling, cat. #9359), total STAT3 (Cell Signaling #4904) and phosphorylated STAT3 (Tyr 705) (Cell Signaling #9661), Cleaved Caspase-3 (Asp175) (Cell Signaling #9661), Cleaved-Parp-1 (ab72805) Anti-Cyclin D1 (Abcam ab16663), Anti-Cyclin-D2 (Abcam ab94685), Anti-c-Myc (Abcam ab32072) and β-actin (Cell Signaling #3700) as a loading control, followed by fluorescent conjugated goat secondary antibodies Alexa Fluor 488 (Cell Signaling #4408) and Alexa Fluor 647.
Downstream of STAT5, modulation of the STAT5 transcriptional targets, MCL-1, CYCLIND1/D2 and MYC was assessed.

[5] = tested on: 120 representative kinases (incl. JAK 1/2, ABL, FLT-3); assay: KINOMEscan (DiscoverX) kinase profiling; type: binding; conditions: 5 μM, 120 kinases incl. JAK 1/2, ABL, qPCR
Experimental: KINOMEscan kinase profiling was performed as previously described (Fabian et al., 2005; Karaman et al., 2008). For most assays, kinase-tagged T7 phage strains were grown in parallel in 24-well blocks in an E. coli host derived from the BL21 strain. E. coli were grown to log-phase and infected with T7 phage from a frozen stock (multiplicity of infection=0.4) and incubated with shaking at 32° C. until lysis (90-150 minutes). The lysates were centrifuged (6,000×g) and filtered (0.2 μm) to remove cell debris. The remaining kinases were produced in HEK-293 cells and subsequently tagged with DNA for qPCR detection as previously described (Wodicka et al., 2010). […] The liganded beads were blocked with excess biotin and washed with blocking buffer (SeaBlock (Pierce), 1% BSA, 0.05% Tween 20, 1 mM DTT) to remove unbound ligand and to reduce non-specific phage binding. […] All reactions were performed in polypropylene 384-well plates in a final volume of 0.04 ml. […] The kinase concentration in the eluates was measured by qPCR and the data presented as % Ctrl (FIG. 1).

[6] = target: T1, wildtype STAT5B protein (SH2 domain) (Homo sapiens, UniProt P51692); assay: Fluorescence polarization competitive binding, STAT5b; conditions: FP
T1 sequence (P51692 1-787): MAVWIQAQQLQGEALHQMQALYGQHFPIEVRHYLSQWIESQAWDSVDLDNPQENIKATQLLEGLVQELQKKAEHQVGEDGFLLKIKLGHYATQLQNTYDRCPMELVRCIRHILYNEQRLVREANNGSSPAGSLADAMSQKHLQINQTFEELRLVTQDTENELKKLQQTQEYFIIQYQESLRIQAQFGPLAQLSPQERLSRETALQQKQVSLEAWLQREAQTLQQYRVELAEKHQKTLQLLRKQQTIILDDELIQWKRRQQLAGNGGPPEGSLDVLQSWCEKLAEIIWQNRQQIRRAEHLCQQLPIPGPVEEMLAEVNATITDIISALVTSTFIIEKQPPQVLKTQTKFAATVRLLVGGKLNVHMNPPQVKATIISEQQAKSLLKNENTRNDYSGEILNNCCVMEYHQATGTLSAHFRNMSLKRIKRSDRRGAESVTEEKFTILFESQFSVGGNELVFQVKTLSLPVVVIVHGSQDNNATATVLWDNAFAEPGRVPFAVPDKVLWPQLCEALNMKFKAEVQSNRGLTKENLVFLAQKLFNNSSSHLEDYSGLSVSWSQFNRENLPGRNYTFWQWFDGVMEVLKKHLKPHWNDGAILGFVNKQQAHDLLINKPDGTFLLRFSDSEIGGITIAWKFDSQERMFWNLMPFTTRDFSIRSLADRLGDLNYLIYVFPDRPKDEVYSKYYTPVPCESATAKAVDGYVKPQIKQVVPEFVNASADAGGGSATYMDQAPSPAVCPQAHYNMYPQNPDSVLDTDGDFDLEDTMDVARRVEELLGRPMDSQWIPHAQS
Experimental: Fluorescence assays were performed in flat black 384-well plates (Corning) and fluorescence polarization measurements were taken with the Infinite M1000 machine (Tecan, Crailsheim, Germany). The buffer conditions for all assays were 20 mM HEPES, 50 mM NaCl, 1 mM EDTA, 2 mM dithiothreitol, pH 7.5 and the final DMSO concentration in the wells was kept constant at 10%.
The point at which 80% of the fluoresceinated-phosphopeptide was bound was used as the optimal protein concentration required for the competitive fluorescent polarization assays.
Compounds were titrated at concentrations ranging from 1->60,000 nM and incubated for a further 15 minutes at which point fluorescence polarization measurements were taken in triplicate. The final well concentrations of the fluoresceinated-phosphopeptide and STAT5B were 10 nM and 250 nM, respectively.
The resulting fluorescence polarization measurements were normalized and plotted against compound concentration on a logarithmic scale. The raw data was fitted with a standard dose-normalized response inhibition curve using GraphPad Prism 6 software.
Modified Cheng-Pruskoff equation containing a correction factor for protein concentration.

CC(C)(C)c1cc(CN(C(=O)CN(Cc2ccc(Cl)cc2)S(=O)(=O)c2c(F)c(F)c(F)c(F)c2F)c2ccc(C(=O)O)c(O)c2)cc(C(C)(C)C)c1 [Compound 13a, 4-(2-((N-(4-chlorobenzyl)-2,3,4,5,6-pentafluorophenyl)sulfonamido)-N-(3,5-di-tert-butylbenzyl)acetamido)-2-hydroxybenzoic Acid]
effect on cell viability of healthy CD34+ cells ([1]; 10 μM): little reduction in cell viability; also recorded: little effect | difference in sensitivity CD34+ vs MV-4;11 cells ([1]; therapeutic window): approximate order of magnitude difference | recovered in mouse liver s9 (MMLS9) fractions [2]: 6.96% | pSTAT5 level ([3]; MV-4;11, 5 h): dose-dependent decrease | pSTAT5 phosphorylation ([3]; MV-4;11, 24 h, 10 μM): complete ablation | pSTAT3 inhibition ([4]; MDA-MB-231, doses corresponding to STAT5 inhibition): not inhibited | total STAT3 and STAT5 protein levels ([4]; MDA-MB-231 and leukemic cell line): neither total STAT3 or STAT5 protein levels were affected | effects against the bank of kinases [5]: negligible effects | IC50 ([6]; 5-FAM-GpYLVLDKW 10 nM, STAT5B 250 nM): 370 nM | Ki ([6]; converted from IC50 with Equation 1): 150 nM
